The values below come from US7906488B2, “Sphingolipids in treatment and prevention of steatosis and of steatosis or of hepatotoxicity and its sequelae” (Nederlandse Organisatie Voor …, priority 2004, dated 2011).

For assay [1], the system named is APOE*3Leiden mice. The experiment in a line: Effect of dietary sphingolipids on plasma C and TG levels (0.1, 0.2, 0.4% in diet). Type of assay: in vivo. The following applies: 0.4% sphingolipid in diet, compared with 0.2%. The source says:
Sphingolipids: The three sphingolipids that represent the most abundant natural complex sphingolipid classes and the three of the simplest natural sphingolipids, the sphingoid bases that can be formed by enzymatic breakdown of complex sphingolipids in the intestine were used. Sphingomyelin (mainly N-palmitoyl-sphingosine-1-phosphocholine) from egg was obtained from Larodan Fine Chemicals (Stockholm, Sweden). Yeast-derived (semi)synthetic ceramide III (N-stearoyl-phytosphingosine), cerebroside (N-stearoyl-phytosphingosine-1-glucose) and phytosphingosine (PS) were from Cosmoferm BV (Delft, the Netherlands). Sphinganine and sphingosine were from Avanti Polar Lipids (Albaster, Ala.). Animals and diets: Heterozygous female APOE*3Leiden transgenic mice (Van Vlijmen et al. 1994. J. Clin. Invest 93:1403-1410.) (6 months old) were fed a Western-type diet (Hope Farms, Woerden, the Netherlands) containing 15% cocoa butter, 0.25% cholesterol, 1% corn oil, 40.5% sucrose, 20% acid casein, 10% corn starch and 5.95% cellulose (all w/w) for 5 weeks. The mice were allowed free access to food and water. Body weight and food intake were monitored weekly. In the first experiment (FIG. 2), the mice were randomized after these 5 weeks into 7 groups (n=6), based on plasma cholesterol, triglycerides, and body weight. Subsequently, the mice were fed for three weeks the same diet without or with 0.1% (w/w) phytosphingosine (PS), sphingosine, sphinganine, cerebroside, ceramide III, or sphingomyelin. […]
Plasma parameters: Tail blood samples were collected in EDTA-coated cups, or in paraoxon-coated capillaries to prevent lipolysis as described in Zambon et al. 1993 (Zambon et al. 1993. J. Lipid Res. 34:1021-1028). Plasma lipid parameters were determined using commercial kits for total cholesterol (C) Chol R1 from Roche Diagnostics, Mannheim, Germany), non-esterified free fatty acids (FFA) (NEFA-C; Wako chemicals, Neuss, Germany), Total triglycerides (TG) (Triglyceride GPO-Trinder; Sigma, St. Louis, Mo.), β-hydroxybutyrate (β-HB; Sigma) and ALAT (Reflotron GPT; Roche). Serum amyloid A (SAA) was measured by ELISA (Biosource, Nivelles, Belgium) and fibrinogen by sandwich ELISA, as described in Koopman et al., 2005 (Koopman et al. 2005. Fibrinol Proteol 11:19). […] Hepatic VLDL-TG production: The rate of hepatic VLDL-TG production, de novo apoB secretion, and VLDL composition were determined in overnight-fasted mice. […] After 30 min, the animals received a Triton WR1339 injection (Tyloxapol, Sigma; 500 mg/kg body weight in 100 μl saline) to prevent systemic lipolysis of newly-secreted hepatic VLDL-TG (Aalto-Setala et al. 1992. J. Clin. Invest 90:1889-1900.27) Blood samples were drawn at 0, 15, 30, 60, and 90 min after Triton WR1339 injection and plasma TG concentrations were determined. […]

For assay [2], the system named is APOE*3Leiden mice. As to the kind of experiment: Liver lipid levels, liver appearance and liver histology. The class given is in vivo. The following applies: 1% PS diet; for Fat deposits / lipid-filled vacuoles in liver cells (HPS-stained sections): compared to controls.

Consider `CCCCCCCCCCCCCC[C@@H](O)[C@@H](O)[C@@H](N)CO` [PS, phytosphingosine], for which, in the assay with APOE*3Leiden mice [1], the “Plasma C” value was “decreased even more”. Also, in the assay with APOE*3Leiden mice [2] (5 weeks), the “Liver cholesteryl ester, % Δ vs control” value is −61%; the “Liver free cholesterol, % Δ vs control” value is given as −11%; the “Liver triglycerides, % Δ vs control” value is on record as −56%. In the assay on APOE*3Leiden mice [2] (5 weeks, 4 h-fasted), this compound showed a Liver cholesteryl ester of 5.20 ± 0.79 μg/mg protein, a Liver free cholesterol of 6.95 ± 0.78 μg/mg protein and a Liver triglycerides of 15.28 ± 3.84 μg/mg protein. Besides, in the assay on APOE*3Leiden mice [2], the “Fat deposits / lipid-filled vacuoles in liver cells (HPS-stained sections)” value was “less lipid-filled vacuoles”. Besides, the “Fat deposits / lipid-filled vacuoles in liver cells (HPS-stained sections)” value in the assay with APOE*3Leiden mice [2] (listed as phytosphingosine) is given as “absence of such fat deposits”. In addition, the “Liver appearance at autopsy” value in the assay on APOE*3Leiden mice [2] (control livers enlarged and yellowish) was “of normal size, and had a dark-red appearance”. Further, in the assay on APOE*3Leiden mice [2] (p<0.05), the “Decrease of liver Free C vs control” value worked out at 11% and the “Decrease of liver cholesteryl esters vs control” value was determined as 61%.
